Experiment [1] relates to HUV-EC-C cells (aFGF, FGF-R). Nature of the experiment: cells. As to conditions: Homo sapiens, HUVEC, read-out: HUVEC aFGF IC50. It counts as cell-based.
Method: Repeat the wash two more times with D-PBS, resuspend the cells in-about 1 ml assay medium/15 cm^2 of tissue culture flask. […] Add cells to 96-well flat-bottom plates at 100 μl/well or 0.8-1.0×10^4 cells/well, incubate −24h at 37° C., 5% CO2.
Use the same assay medium as mentioned in day 0, step 2 above. Titrations are made by adding 90 μl/well of test compound at 200 μM (4× the final well concentration) to the top well of a particular plate column. Since the stock test compound is usually 20 mM in DMSO, the 200 μM drug concentration contains 2% DMSO.
A diluent made up to 2% DMSO in assay medium (F12K+0.5% fetal bovine serum) is used as diluent for the test compound titrations in order to dilute the test compound but keep the DMSO concentration constant. Add this diluent to the remaining wells in the column at 60 μl/well. Take 60 μl from the 120 μl of 200 μM test compound dilution in the top well of the column and mix with the 60 μl in the second well of the column. Take 60 μl from this well and mix with the 60 μl in the third well of the column, and so on until two-fold titrations are completed. When the next-to-the-last well is mixed, take 60 μl of the 120 μl in this well and discard it. Leave the last well with 60 μl of DMSO/media diluent as a non-test compound-containing control. […] In triplicate, add 50 μl/well of 80 μg/ml VEGF, 20 ng/ml ECGF, or media control to each test compound condition. As with the test compounds, the growth factor concentrations are 4× the desired final concentration. Use the assay media from day 0 step 2 to make the concentrations of growth factors.
Freeze plates overnight at −20° C.
Experiment [2] concerns endogenous FGF receptors in 3Tc7/EGFr cells. As to the kind of experiment: FGF-induced BrdU incorporation assay. The class given is cell-based. As to conditions: read-out: FGF-Induced BrdU Incorp. IC50. On the procedure:
The cellular/catalytic assays described herein are performed in an ELISA format. The general procedure is as follows: a compound is introduced to cells expressing the test kinase, either naturally or recombinantly, for a selected period of time after which, if the test kinase is a receptor, a ligand known to activate the receptor is added. The cells are lysed and the lysate is transferred to the wells of an ELISA plate previously coated with a specific antibody recognizing the substrate of the enzymatic phosphorylation reaction. Non-substrate components of the cell lysate are washed away and the amount of phosphorylation on the substrate is detected with an antibody specifically recognizing phosphotyrosine compared with control cells that were not contacted with a test compound. The cellular/biologic assays described herein measure the amount of DNA made in response to activation of a test kinase, which is a general measure of a proliferative response. The general procedure for this assay is as follows: a compound is introduced to cells expressing the test kinase, either naturally or recombinantly, for a selected period of time after which, if the test kinase is a receptor, a ligand known to activate the receptor is added. After incubation at least overnight, a DNA labeling reagent such as Bromodeoxyuridine (BrdU) or 3H-thymidine is added. The amount of labeled DNA is detected with either an anti-BrdU antibody or by measuring radioactivity and is compared to control cells not contacted with a test compound.
FGF-Induced BrdU incorporation Assay
This assay measures FGF-induced DNA synthesis in 3Tc7/EGFr cells that express endogenous FGF receptors.
Materials and Reagents: • 1. FGF: human FGF2/bFGF (Gibco BRL, No. 13256-029). • 2. BrdU Labeling reagent, (10 mM PBS (pH 7.4), Boehringer Mannheim Cat No. 1 647 229). • 3. Fixdenat fixation solution (Boehringer Mannheim Cat No. 1 647 229). • 4. Anti-BrdU-POD (mouse monoclonal antibody conjugated with peroxidase, Boehringer Mannheim Cat. No. 1 647 229). • 5. TMB (tetramethylbenzidine, Boehringer Mannheim Cat. No. 1 647 229). • 6. PBS washing solution, pH 7.4 (Sugen, Inc.). • 7. Albumin, bovine (BSA), fraction V powder (Sigma Chemical Co., Cat. No. A-8551)
Procedure • 1. 3T3 engineered cell line: 3T3c7/EGFr. • 2. Cells are seeded at 8,000 cells/well in DMEM, 10% CS and 2 mM Gln in a 96-well plate. Incubate 24 hours at 37° C. in 5% CO2. • 3. After 24 hours, wash cells with PBS then serum starve in serum free medium (0% DMEM, 0.1% BSA) for 24 hours. • 4. Add ligand (FGF2 (1.5 nM in DMEM with 0.1% BSA) and test compound simultaneously. Negative control wells receive serum free DMEM with 0.1% BSA only, positive control wells receive FGF2 ligand but no test compound. Test compounds are prepared in serum-free DMEM with ligand in a 96-well plate and serially diluted to make seven (7) test concentrations. • 5. After 20 hours, add diluted BrdU labeling reagent (1:100 BrdU:DMEM, 0.1% BSA, final concentration is 10 μM) to the cells and incubate for 1.5 hours. • 6. Decant medium. Remove traces of material with paper towel. Add FixDenat (50 μl/well) and incubate at room temperature for 45 minutes on a plate shaker. • 7. Remove Fixdenat solution. Add blocking solution (5% dehydrated milk in PBS (200 μl/well)) and incubate for 30 minutes at room temperature on a plate shaker. • 8. Decant blocking solution, wash wells once with PBS. Add anti-BrdU-POD solution (1:100 dilution in PBS, 0.1% BSA), incubate for 90 minutes at room temperature on a plate shaker. • 9. Decant antibody conjugate, rinse wells 5 times with PBS. Dry plate by inverting on paper towel and tapping. • 10. Add TMB solution (100 μl/well), incubate 20 minutes at room temperature on a plate shaker until color development is sufficient for photometric detection. • 11. Measure absorbance at 410 nm on a Dynatech ELISA plate reader using “Dual wavelength” mode with a filter at 490 nM. Biochemical EGFR Assay
Background: Uptake of a labelled nucleoside into DNA is a usual measure of proliferation.

Like-named read-outs stand apart in the source and are kept apart here. Where only a bound is given, the exact number is not on record here.

By IC50 is commonly meant the midpoint of a concentration-inhibition curve. In the case of `CNC(=O)CCc1c(/C=C2\C(=O)Nc3ccccc32)[nH]c2c1CCCC2` [Example 201, N-Methyl-3-[2-(2-oxo-1,2-dihydroindol-3-ylidenemethyl)-4,5,6,7-tetrahydro-1H-indol-3-yl]-propionamide], the IC50 in experiment [1] (aFGF-stimulated) is 0.16 µM; in experiment [2] it was > 50 µM.

For `O=C(CCc1c(/C=C2\C(=O)Nc3ccccc32)[nH]c2c1CCCC2)NCCN1CCOCC1` [Example 202, N-(2-Morpholin-4-ylethyl)-3-[2-(2-oxo-1,2-dihydroindol-3-ylidenemethyl)-4,5,6,7-tetrahydro-1H-indol-3-yl]-propionamide], in experiment [2], the IC50 is > 50 µM.

With `COc1ccc2c(c1)NC(=O)/C2=C\c1[nH]c2c(c1CCC(=O)O)CCCC2` [Example 196, 3-[2-(6-Methoxy-2-oxo-1,2-dihydroindol-3-ylidenemethyl)-4,5,6,7-tetrahydro-1H-indol-3-yl]-propionic acid], in experiment [1] (aFGF-stimulated), the half-inhibitory concentration (IC50) is 1.6 µM.

As to `COc1ccc2c(c1)NC(=O)/C2=C\c1[nH]cc(C)c1CCC(=O)O` [Example 217, 3-[2-(6-Methoxy-2-oxo-1,2-dihydroindol-3-ylidenemethyl)-4-methyl-1H-pyrrol-3-yl]-propionic acid], in experiment [2], the IC50 was > 50 µM.

On to `Cc1c[nH]c(/C=C2\C(=O)Nc3ccccc32)c1CCC(=O)O` [Example 215, 3-[4-Methyl-2-(2-oxo-1,2-dihydroindol-3-ylidenemethyl)-1H-pyrrol-3-yl]-propionic acid], for which the IC50 was determined as 1.1 µM in experiment [1] and 25 µM in experiment [2].

Consider `Cc1c[nH]c(/C=C2\C(=O)Nc3cccc(C)c32)c1CCC(=O)O` [Example 218, 3-[2-(4-Methyl-2-oxo-1,2-dihydroindol-3-ylidenemethyl)-4-methyl-1H-pyrrol-3-yl]-propionic acid], for which, in experiment [2], the IC50 was > 50 µM.

Consider `O=C1Nc2ccccc2/C1=C/c1[nH]c2c(c1CCC(=O)N1CCOCC1)CCCC2` [Example 200, 3-[3-(3-Morpholin-4-yl-3-oxopropyl)-4,5,6,7-tetrahydro-1H-indol-2-ylmethylene]-1,3-dihydroindol-2-one], for which the IC50 in experiment [2] was > 50 µM.

Take `CN(C)CCCc1c(/C=C2\C(=O)Nc3ccccc32)[nH]c2c1CCCC2` [Example 198, 3-[3-(3-Dimethylaminopropyl)-4,5,6,7-tetrahydro-1H-indol-2-ylmethylene]-1,3-dihydroindol-2-one]: in experiment [2], the IC50 was > 50 µM.

`CN(C)C(=O)CCc1c(/C=C2\C(=O)Nc3ccccc32)[nH]c2c1CCCC2` [Example 197, N,N-Dimethyl-3-[2-(2-oxo-1,2-dihydroindol-3-ylidenemethyl)-4,5,6,7-tetrahydro-1H-indol-3-yl]-propionamide]: the half-maximal inhibitory concentration (IC50) is 202 µM in experiment [1] (aFGF-stimulated) and > 50 µM in experiment [2].

For the molecule `Cc1c[nH]c(/C=C2\C(=O)Nc3ccc(Br)cc32)c1CCC(=O)O` [Example 220, 3-[2-(5-Bromo-2-oxo-1,2-dihydroindol-3-ylidenemethyl)-4-methyl-1H-pyrrol-3-yl]-propionic acid], the IC50 in experiment [2] is > 50 µM.

Regarding `NC(=O)CCc1c(/C=C2\C(=O)Nc3ccccc32)[nH]c2c1CCCC2` [Example 199, 3-[2-(2-Oxo-1,2-dihydroindol-3-ylidenemethyl)-4,5,6,7-tetrahydro-1H-indol-3-yl]-propionamide], the IC50 in experiment [1] (aFGF-stimulated) is 0.1 µM; in experiment [2] it was > 50 µM.

On to `O=C(O)CCc1c(/C=C2\C(=O)Nc3ccc(Cl)cc32)[nH]c2c1CCCC2` [Example 191, 3-[2-(5-Chloro-2-oxo-1,2-dihydroindol-3-ylidenemethyl)-4,5,6,7-tetrahydro-1H-indol-3-yl]-propionic acid], for which the IC50 was 0.25 µM in experiment [1] (aFGF-stimulated) and 23.6 µM in experiment [2].
